# In BindingDB's records for patent US20230391748 (Rigel Pharmaceuticals, 2023):
# Target: T1, Interleukin-1 receptor-associated kinase 4 (Homo sapiens, UniProt Q9NWZ3)
# T1 sequence (Q9NWZ3 whole entry): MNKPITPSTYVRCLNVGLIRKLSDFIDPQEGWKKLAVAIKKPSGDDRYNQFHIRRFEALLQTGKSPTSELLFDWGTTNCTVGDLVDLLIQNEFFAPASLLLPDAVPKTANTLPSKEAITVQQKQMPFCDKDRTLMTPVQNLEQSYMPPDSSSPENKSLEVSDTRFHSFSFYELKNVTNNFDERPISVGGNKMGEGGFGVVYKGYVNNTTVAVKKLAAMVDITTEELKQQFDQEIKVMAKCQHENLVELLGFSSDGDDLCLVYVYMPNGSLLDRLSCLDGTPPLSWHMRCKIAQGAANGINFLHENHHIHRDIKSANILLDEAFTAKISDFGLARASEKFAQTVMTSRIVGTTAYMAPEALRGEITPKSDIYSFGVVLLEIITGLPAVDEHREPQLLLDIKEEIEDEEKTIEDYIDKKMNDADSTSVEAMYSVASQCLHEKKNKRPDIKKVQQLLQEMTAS
# Experiment: IRAK4 ADP-Glo Assay
# Protocol: The ADP-Glo reagents were thawed at ambient temperature. The Kinase Detection Reagent was prepared by mixing kinase detection buffer with the lyophilized kinase detection substrate, and set aside.A stock volume of 5 Reaction Kinase Buffer was made with a final concentration of 100 mM MgCl2, 200 mM Tris-HCl, and 0.5 mg/ml of BSA, in distilled H2O with a final pH7.4. A 2 working stock volume of Reaction Kinase Buffer was made containing a final concentration of 100 μM DTT.The components of IRAK4 Enzyme were thawed on ice. Diluted IRAK4 in 1 Kinase Reaction Buffer (diluted from 2 buffer) was prepared at 5.0 ng/μl. […] Then diluted 1:5 in 2 Reaction Buffer in a 96 well plate. 1.0 μl was transferred to a 384 well plate in duplicate. […] 1 μl of 1 mg/ml stock solution of MBP substrate was added NOTE: MBP can be combined with ATP mix with equal volume and then added at 2 μl/well. Final reaction volume was 5 μl.The plate was centrifuged and the reaction mixture was incubated at room temperature for 60 minutes or at 30 C. for 30 minutes.The reaction was terminated and the remaining ATP was depleted by adding 5 μl of ADP-Glo Reagent. The 384-well plate was centrifuged and then the reaction mixture was incubated for another 40 minutes at ambient temperature.
row,Structure (SMILES),IC50 [nM]
1,"CC(C)Oc1cc2c(OC[C@@H]3CC(F)(F)C(=O)N3)ncc(C#CC3(O)CCN(C(=O)OC(C)(C)C)CC3)c2cc1C(N)=O [US20230391748, Compound I-52]",18.3
2,"CC(C)Oc1cc2c(O[C@@H]3CCCNC3)ncc(C#CC3(O)CCCC3)c2cc1C(N)=O [US20230391748, Compound I-85]",35
